Reference: patent US20250368958A1, “CAR-EXPRESSING PLURIPOTENT STEM CELL-DERIVED NEUTROPHILS LOADED WITH DRUG NANOPARTICLES AND USES THEREOF” (Purdue Research Foundation, priority 2022, published 2025)

Columns and labels:
U87MG tumor spheroids = assay: 3D tumor spheroid model; format: cell-based, human; conditions: drug delivered by CAR-neutrophils@R—SiO2 NPs
Procedure: A three-dimensional (3D) tumor spheroid model was then employed to evaluate the tumor-penetration ability of R—SiO2-TPZ NP-loaded CAR-neutrophils (FIG. 6G). 3D tumor spheroids were generated by the hanging-drop method. Briefly, U87MG cells were suspended in minimum essential medium (MEM) medium with 10% FBS and 0.3% methylcellulose at 2×10^6 cells/mL and deposited onto an inverted lid of 96-well plate as an individual drop using a 20 μL pipettor. The cover lid was then placed back onto the PBS-filled bottom chamber, and the whole plate was incubated at 37° C. and 5% CO2. The hanging drops were monitored daily until cell aggregates were formed in 5-7 days. Each cell aggregate was transferred to a single well of a 24-well plate for subsequent experiments.
To assess the tumor penetration capability of CLTX-CAR neutrophils, 2×10^5 neutrophils/well were added to the wells of 24-well plate and incubated with tumor spheroids. After co-incubation for 24 hours, tumor spheroids were fixed and stained for CD45 and DAPI. For cytotoxicity analysis, both live/dead cell staining and the CytoTox-Glo™ Cytotoxicity Assay kit (Promega Corporation, Madison, WI) were employed. The CytoTox-Glo™ Cytotoxicity Assay was quantified by the SpectraMax iD3 microplate reader (Molecular Devices, Sunnyvale, CA).

[1] = test system: tumor-neutrophil co-culture; assay: Tumor lysis with phagocytosis or ROS inhibitor; format: cell-based
Procedure: FIG. 16A is a volcano map of bulk RNA-Seq analysis of U87MG cells under indicated treatments. FIGS. 16B and 16C show tumor lysis measurements of the indicated groups treated with 5 μM cytochalasin D (CytoD) or 5 mM N-acetylcysteine (NAC), respectively.
RNA sequencing (RNA-seq) analysis on tumor cells was performed to elucidate potential molecular mechanism underlying enhanced anti-tumor cytolysis of neutrophils by CAR expression and R—SiO2-TPZ NP. […] To further understand enhanced anti-tumor activities of R—SiO2-TPZ-loaded CAR-neutrophils, a phagocytosis inhibitor cytochalasin D and a reactive oxygen species (ROS) inhibitor N-acetyl-cysteine (NAC) were applied to the tumor-neutrophil co-culture.

`Nc1nc2cc(CC[C@H]3C[C@@H](n4ccc5c(N)ncnc54)[C@H](O)[C@@H]3O)ccc2cc1Br` [JNJ64619187] was tested, and the “killing of GBM cells in 3D tumor models” value (U87MG tumor spheroids) was “efficiently kill GBM cells”.

With `CC(=O)N[C@@H](CS)C(=O)O` [NAC, N-acetyl-cysteine] the “cytolysis of tumor cells by CAR-neutrophils in presence of inhibitor” value ([1]; 5 mM) was “significantly reduced”.

For `C=C1[C@@H](C)[C@H]2[C@H](Cc3ccccc3)NC(=O)[C@]23[C@H](OC(C)=O)/C=C/[C@@](C)(O)C(=O)[C@@H](C)C/C=C/[C@H]3[C@@H]1O` [cytochalasin D], the “cytolysis of tumor cells by CAR-neutrophils in presence of inhibitor” value ([1]; 5 μM) was “significantly reduced”.
